One compound from patent publication EP0640095B1, “PROCESS FOR MAKING VANCOMYCIN” (ABBOTT LABORATORIES, priority 1992, dated 1993) can be followed below.

Values after ≈ are worked out from the molar mass of the structure shown.

As usually defined, the solubility is how much of the substance goes into solution per volume. A high value points to much dissolved substance.

This data set is described as follows: Solubility of vancomycin as a function of pH (base crystallization). Type of data set: physicochemical. The settings on record: pH 9; pH of 9.0 to 9.5. An excerpt: Prior to the base crystallization step, the pH of the solution must be optimized to maximize the efficiency of the crystallization. […]

On to `CN[C@H](CC(C)C)C(=O)N[C@H]1C(=O)N[C@@H](CC(N)=O)C(=O)N[C@H]2C(=O)N[C@H]3C(=O)N[C@H](C(=O)N[C@H](C(=O)O)c4cc(O)cc(O)c4-c4cc3ccc4O)[C@H](O)c3ccc(c(Cl)c3)Oc3cc2cc(c3O[C@@H]2O[C@H](CO)[C@@H](O)[C@H](O)[C@H]2O[C@H]2C[C@](C)(N)[C@H](O)[C@H](C)O2)Oc2ccc(cc2Cl)[C@H]1O` [vancomycin], for which the solubility lay in the range of 5 to 20 mg/mL (≈ 3.45 to 13.8 mM).
